# Test results from US8691804B2 (Evotec AG, priority 2008, dated 2014).
# Target: T1, human H3 receptors (Homo sapiens, UniProt Q9Y5N1)
# T1 construct: host or cells: CHO-K1
# Test: cAMP quantification assay for human H3 receptor testing
# Format: cell-based
# Conditions: CHO-K1 cells expressing human H3 receptors; inhibition of agonist-induced decrease of cAMP; 100 nM histamine, 10 μM forskolin; read-out: Potency range (IC50 values)
# Description: CHO—K1 cell line expressing human H3 receptors were purchased from Euroscreen (Gosselies, Belgium, Cat. no.: ES-392-C)
# Human H3 receptor-expressing cell-lines were grown in Ham's F12 [Sigma, Cat. no. N6658], supplemented with 10% FBS [Sigma, Cat. no. F9665], 400 μg/ml G418 [Sigma, Cat. no. N1876] and 250 μg/ml Zeocin [Invitrogen, Cat. no. 46-0509]) according to the protocol provided by Euroscreen.
# The assay measures the ability of test compounds to inhibit Histamine receptor agonist-induced decrease of intracellular free cAMP (receptor is Gi coupled).
# Specifically, a cAMP quantification assay system from DiscoveRx (cAMP XS+; Cat. no. 90-0075) was used.
# For the cAMP assay, confluent cells were detached from the culture vessels with 1× trypsin-EDTA solution (Sigma), and seeded into 384-well Costar plates (white, clear bottom, Cat. no. 3707) at a density of 10,000 cells per well. Cells were seeded in a volume of 50 μl in medium without antibiotics and incubated overnight in a humidified atmosphere with 5% CO2 at 37° C. The cAMP assay was performed according to the protocol provided by DiscoveRx.
# The cell culture medium was removed and the cells washed once with PBS (50 μl per well). The plates were emptied by inversion and 7.5 μl/well of compound in PBS (containing 1 mM IBMX and 0.03% BSA) were added and incubated for 30 min at 37° C.
# Subsequent 7.5 μl/well specific agonist solution was added and the plates for another 30 min incubated at 37° C.
# hH3:100 nM histamine, 10 μM forskolin in PBS (containing 1 mM IBMX and 0.03% BSA)
# After the incubation with the agonist, 5 μl/well cAMP XS antibody solution was added followed by 20 μl/well Gal/EII/Lysis (1:5:19)+ED (1:1). The plates were incubated for one hour at room temperature and afterwards 20 μl/well EA reagent was added. The luminescence was developed for approximately three hours at room temperature and the plates were read out using a ‘BMG Novostar’ plate reader.
# Test compounds were assayed at 8 concentrations in triplicate. Serial 10-fold dilutions in 100% DMSO were made at a 100-times higher concentration than the final concentration and then diluted with a 2 step protocol in assay buffer to reach the required assay concentrations and 1% DMSO. […]
# T1 sequence (Q9Y5N1 whole entry): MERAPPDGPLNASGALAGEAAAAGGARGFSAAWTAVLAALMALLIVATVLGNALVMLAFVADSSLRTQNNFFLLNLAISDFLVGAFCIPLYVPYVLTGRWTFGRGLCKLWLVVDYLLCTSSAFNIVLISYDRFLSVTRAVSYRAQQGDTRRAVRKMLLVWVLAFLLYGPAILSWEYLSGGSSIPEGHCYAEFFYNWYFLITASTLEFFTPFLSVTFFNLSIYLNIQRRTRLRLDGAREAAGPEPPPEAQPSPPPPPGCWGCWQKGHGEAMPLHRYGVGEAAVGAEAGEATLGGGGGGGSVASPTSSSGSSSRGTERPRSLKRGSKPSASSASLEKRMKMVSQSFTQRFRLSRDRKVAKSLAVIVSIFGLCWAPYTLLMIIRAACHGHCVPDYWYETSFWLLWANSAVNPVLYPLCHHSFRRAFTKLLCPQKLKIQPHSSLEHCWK
row,IC50 [nM],SMILES
1,100 to 500,"O=C([C@H]1C[C@@H](O)C1)N1CCCN(C2CCC2)CC1 [Example 101, cis-3-[(4-cyclobutyl-1,4-diazepan-1-yl)carbonyl]cyclobutanol]"
2,< 100,"O=C(N1CCCN(C2CCC2)CC1)N1CC(Oc2ccc(Br)nc2)C1 [Example 24, 1-({3-[(6-bromopyridin-3-yl)oxy]azetidin-1-yl}carbonyl)-4-cyclobutyl-1,4-diazepane]"
3,< 100,"Cc1cnc(OC2CN(C(=O)N3CCCN(C4CCC4)CC3)C2)c(C)n1 [Example 61, 1-cyclobutyl-4-({3-[(3,5-dimethylpyrazin-2-yl)oxy]azetidin-1-yl}carbonyl)-1,4-diazepane]"
4,< 100,"CNC(=O)c1ccc(OC2CN(C(=O)N3CCN(C4CCC4)CC3)C2)cn1 [Example 37, 5-({1-[(4-cyclobutylpiperazin-1-yl)carbonyl]azetidin-3-yl}oxy)-N-methylpyridine-2-carboxamide]"
5,< 100,"O=C(N1CCCN(C2CCC2)CC1)N1CC(Oc2ccccc2Cl)C1 [Example 33, 1-{[3-(2-chlorophenoxy)azetidin-1-yl]carbonyl}-4-cyclobutyl-1,4-diazepane]"
6,< 100,"O=C1CN(C(=O)N2CCCN(C3CCC3)CC2)C1 [Example 108, 1-[(4-cyclobutyl-1,4-diazepan-1-yl)carbonyl]azetidin-3-one]"
7,< 100,"Cc1cncc(OC2CN(C(=O)N3CCCN(C4CCC4)CC3)C2)n1 [Example 63, 1-cyclobutyl-4-({3-[(6-methylpyrazin-2-yl)oxy]azetidin-1-yl}carbonyl)-1,4-diazepane]"
8,500 to 5000,"CCc1cnc(OC2CN(C(=O)N3CCCN(C4CCC4)CC3)C2)nc1 [Example 162, 1-cyclobutyl-4-({3-[(5-ethylpyrimidin-2-yl)oxy]azetidin-1-yl}carbonyl)-1,4-diazepane]"
9,< 100,"O=C(N1CCCN(C2CCC2)CC1)N1CC(COc2ccc(C(F)(F)F)nc2)C1 [Example 153, 1-cyclobutyl-4-{[3-({[6-(trifluoromethyl)pyridin-3-yl]oxy}methyl)azetidin-1-yl]carbonyl}-1,4-diazepane]"
10,< 100,"O=C(N1CCCN(C2CCC2)CC1)N1CC(Oc2ccn3ccnc3c2)C1 [Example 71, 7-({1-[(4-cyclobutyl-1,4-diazepan-1-yl)carbonyl]azetidin-3-yl}oxy)imidazo[1,2-a]pyridine]"
11,< 100,"CN(C)c1cc(OC2CN(C(=O)N3CCCN(C4CCC4)CC3)C2)ccn1 [Example 58, 4-({1-[(4-cyclobutyl-1,4-diazepan-1-yl)carbonyl]azetidin-3-yl}oxy)-N,N-dimethylpyridin-2-amine]"
12,< 100,"CNC(=O)c1ccc(N(C)C2CN(C(=O)N3CCCN(C4CCC4)CC3)C2)cn1 [Example 111, 5-[{1-[(4-cyclobutyl-1,4-diazepan-1-yl)carbonyl]azetidin-3-yl}(methyl)amino]-N-methylpyridine-2-carboxamide]"
13,< 100,O=C(N1CCCN(C2CCC2)CC1)N1CC(Oc2ccncc2Cl)C1 [Example 67]
14,< 100,"COc1cc(OC2CN(C(=O)N3CCCN(C4CCC4)CC3)C2)ccn1 [Example 56, 1-cyclobutyl-4-({3-[(2-methoxypyridin-4-yl)oxy]azetidin-1-yl}carbonyl)-1,4-diazepane]"
15,< 100,"CC(C)(O)c1ccc(O[C@H]2C[C@@H](C(=O)N3CCCN(C4CCC4)CC3)C2)cn1 [Example 165, 2-[5-({cis-3-[(4-cyclobutyl-1,4-diazepan-1-yl)carbonyl]cyclobutyl}oxy)pyridin-2-yl]propan-2-ol]"
16,< 100,"O=C(N1CCCN(C2CCC2)CC1)N1CC(Oc2cncc(Cl)c2)C1 [Example 80, 1-({3-[(5-chloropyridin-3-yl)oxy]azetidin-1-yl}carbonyl)-4-cyclobutyl-1,4-diazepane]"

row,IC50 [nM],SMILES
1,< 100,"O=C(N1CCCN(C2CCC2)CC1)N1CC(Oc2ccc(I)cc2)C1 [Example 44, 1-cyclobutyl-4-{[3-(4-iodophenoxy)azetidin-1-yl]carbonyl}-1,4-diazepane]"
2,< 100,"CCN1CCCN(C(=O)N2CC(Oc3ccc(C(C)(C)O)nc3)C2)CC1 [Example 157, 2-[5-({1-[(4-ethyl-1,4-diazepan-1-yl)carbonyl]azetidin-3-yl}oxy)pyridin-2-yl]propan-2-ol]"
3,< 100,"O=C(N1CCCN(C2CCC2)CC1)N1CC(OCc2ccc(Cl)cc2)C1 [Example 97, 1-({3-[(4-chlorobenzyl)oxy]azetidin-1-yl}carbonyl)-4-cyclobutyl-1,4-diazepane]"
4,< 100,"O=C(N1CCCN(C2CCC2)CC1)N1CC(Oc2cnccc2Cl)C1 [Example 48, 1-({3-[(4-chloropyridin-3-yl)oxy]azetidin-1-yl}carbonyl)-4-cyclobutyl-1,4-diazepane]"
5,< 100,"O=C(N1CCCN(C2CCC2)CC1)N1CC(Oc2ccc(Cl)c(Cl)c2)C1 [Example 23, 1-cyclobutyl-4-{[3-(3,4-dichlorophenoxy)azetidin-1-yl]carbonyl}-1,4-diazepane]"
6,< 100,"CCc1cc(OC2CN(C(=O)N3CCCN(C4CCC4)CC3)C2)ccn1 [Example 54, 1-cyclobutyl-4-({3-[(2-ethylpyridin-4-yl)oxy]azetidin-1-yl}carbonyl)-1,4-diazepane]"
7,< 100,"O=C(N1CCCN(C2CCC2)CC1)N1CC(Oc2ccc(CN3CCCCC3)cc2)C1 [Example 19, 1-cyclobutyl-4-({3-[4-(piperidin-1-ylmethyl)phenoxy]azetidin-1-yl}carbonyl)-1,4-diazepane]"
8,< 100,"O=C(C1CN(C(=O)N2CCCN(C3CCC3)CC2)C1)N1CCOCC1 [Example 125, 1-cyclobutyl-4-{[3-(morpholin-4-ylcarbonyl)azetidin-1-yl]carbonyl}-1,4-diazepane]"
9,< 100,"N#Cc1ccc(CNC2CN(C(=O)N3CCCN(C4CCC4)CC3)C2)cc1 [Example 112, 4-[({1-[(4-cyclobutyl-1,4-diazepan-1-yl)carbonyl]azetidin-3-yl}amino)methyl]benzonitrile]"
10,< 100,"O=C(N1CCCN(C2CCC2)CC1)N1CC(Oc2ccc3[nH]ccc3c2)C1 [Example 154, 5-({1-[(4-cyclobutyl-1,4-diazepan-1-yl)carbonyl]azetidin-3-yl}oxy)-1H-indole]"
11,< 100,"CN(C)C(=O)c1ccc(OC2CN(C(=O)N3CCCN(C4CCC4)CC3)C2)cc1 [Example 9, 4-({1-[(4-cyclobutyl-1,4-diazepan-1-yl)carbonyl]azetidin-3-yl}oxy)-N,N-dimethylbenzamide]"
12,< 100,"CN(C)C(=O)c1ccc(OC2CN(C(=O)N3CCCN(C4CCC4)CC3)C2)cn1 [Example 6, 5-({1-[(4-cyclobutyl-1,4-diazepan-1-yl)carbonyl]azetidin-3-yl}oxy)-N,N-dimethylpyridine-2-carboxamide]"
13,< 100,"NC1CN(C(=O)N2CCCN(C3CCC3)CC2)C1 [Example 109, 1-[(4-cyclobutyl-1,4-diazepan-1-yl)carbonyl]azetidin-3-amine]"
14,< 100,"CCN(CC)C(=O)c1ccc(OC2CN(C(=O)N3CCCN(C4CCC4)CC3)C2)cn1 [Example 7, 5-({1-[(4-cyclobutyl-1,4-diazepan-1-yl)carbonyl]azetidin-3-yl}oxy)-N,N-diethylpyridine-2-carboxamide]"
15,< 100,"Cc1cc(OC2CN(C(=O)N3CCCN(C4CCC4)CC3)C2)ccn1 [Example 27, 1-cyclobutyl-4-({3-[(2-methylpyridin-4-yl)oxy]azetidin-1-yl}carbonyl)-1,4-diazepane]"
